# Test results from patent US20060241082A1, “Modulating vesicular monoamine transporter trafficking and function: a novel approach for the treatment of parkinson's disease” (priority 2002, published 2006).
# Legend:
# [1] = molecular target: T1, plasmalemmal DA transporter (DAT) (Rattus norvegicus, UniProt P23977); settings: rats, cited from earlier work
# T1 construct: Uptake of [^3H]DA was determined in striatal synaptosomes; from tissue; host or cells: striatum of male Sprague-Dawley rats (synaptosomes, P2)
# T1 sequence (P23977 whole entry): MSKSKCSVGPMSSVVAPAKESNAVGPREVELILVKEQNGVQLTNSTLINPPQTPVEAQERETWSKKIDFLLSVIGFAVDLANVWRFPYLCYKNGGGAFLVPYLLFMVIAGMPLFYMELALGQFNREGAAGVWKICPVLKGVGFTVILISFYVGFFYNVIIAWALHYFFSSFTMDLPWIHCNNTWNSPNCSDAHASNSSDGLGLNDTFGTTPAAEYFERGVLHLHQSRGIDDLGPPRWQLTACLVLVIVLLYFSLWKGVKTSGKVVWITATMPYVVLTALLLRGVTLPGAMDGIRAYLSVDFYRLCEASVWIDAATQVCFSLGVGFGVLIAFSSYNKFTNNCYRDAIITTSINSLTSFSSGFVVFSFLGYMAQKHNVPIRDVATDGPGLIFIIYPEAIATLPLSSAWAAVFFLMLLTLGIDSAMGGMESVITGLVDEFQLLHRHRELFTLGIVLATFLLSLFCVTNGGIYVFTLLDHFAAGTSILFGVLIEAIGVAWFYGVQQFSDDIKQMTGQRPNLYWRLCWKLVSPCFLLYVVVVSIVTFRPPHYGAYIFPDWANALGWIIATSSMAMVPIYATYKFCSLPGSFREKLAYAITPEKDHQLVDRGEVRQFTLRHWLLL
# [2] = molecular target: T2, VMAT-2 (Mus musculus, UniProt Q8BRU6); assay: Vesicular [3H]dopamine uptake in striatal vesicles prepared from treated mice; type: in vivo
# T2 sequence (Q8BRU6 whole entry): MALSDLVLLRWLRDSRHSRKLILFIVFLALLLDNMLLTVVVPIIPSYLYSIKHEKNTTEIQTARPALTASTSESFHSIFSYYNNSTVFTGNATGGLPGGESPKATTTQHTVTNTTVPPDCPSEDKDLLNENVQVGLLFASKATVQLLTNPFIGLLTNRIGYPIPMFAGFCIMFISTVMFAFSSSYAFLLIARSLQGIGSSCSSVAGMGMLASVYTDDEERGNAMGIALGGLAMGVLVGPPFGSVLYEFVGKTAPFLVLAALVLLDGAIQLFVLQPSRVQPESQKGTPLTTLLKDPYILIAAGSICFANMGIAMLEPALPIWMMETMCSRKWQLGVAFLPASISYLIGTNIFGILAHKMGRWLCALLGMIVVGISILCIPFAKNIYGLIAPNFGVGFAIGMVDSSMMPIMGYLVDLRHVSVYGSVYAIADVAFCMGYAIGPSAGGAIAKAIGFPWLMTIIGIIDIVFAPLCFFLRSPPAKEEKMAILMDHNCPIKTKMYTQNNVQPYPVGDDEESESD
# Protocol: (A. E. Fleckenstein, et al., J. Pharmacol Exp Ther. (1997) 282:834-838). Briefly, fresh tissue was homogenized in ice-cold 0.32 M sucrose. The homogenate was centrifuged (800×g for 12 min; 4° C.), and the supernatant (S1) was carefully removed and centrifuged (22,000×g for 15 min; 4° C.) to obtain the synaptosomal-containing pellet (P2). The resulting P2 were resuspended and homogenized in ice-cold distilled deionized water. Osmolarity was restore by addition 25 mM HEPES and 100 mM potassium tartrate (final concentration; pH 7.5 at 4° C. respectively). […] The resultant S3 removed and MgSO4 added (final concentration of [1 mM] pH 7.5 at 4° C.) and centrifuged at 100,000×g for 45 min. The final P4 were resuspended at 50 mg/ml (original tissue wet weight).
# [3] = test system: VMAT-2; assay: VMAT-2 immunoreactivity in striatal subcellular fractions of treated mice (Western blot); type: in vivo, mouse; settings: methamphetamine 4 x 10 mg/kg s.c., 1 h
# Protocol: Fresh striatal tissue was homogenized in ice-cold 0.32 M sucrose and centrifuged (800×g for 12 min: 4° C.).
# VMAT-2 antibody was kindly donated by Dr. John Haycock at the Louisiana State University, New Orleans, La. (Antibody can be purchased from Chemicon, Temecula, Calif. and the reagent # is AB1767). Binding of VMAT-2 antibody was performed using 60 μl of whole synaptosomal, plasmalemmal membrane or vesicle subcellular fractions. Samples were added to 20 μl of loading buffer (final concentration: 2.25% SDS, 18% glycerol, 180 mM Tris Base (pH 6.8), 10% β-mercaptoethanol and bromophenol blue). Approximately 60 μg P2, 40 μg protein P3, and 20 μg protein S3 were loaded per well in a 10% SDS-polyacrylamide gel. Following electrophoresis, samples were transferred to polyvinylidene difluoride hybridization transfer membrane (New England Nuclear (NEN), Boston, Mass.). All subsequent incubation steps were performed at room temperature while shaking. Each membrane was first blocked for 2 h in 100 ml of Tris buffer saline with tween (TBST; 250 mM NaCl, 50 mM tris pH 7.4 and 0.05% tween 20) containing 5% nonfat dry milk. Each membrane was then incubated with anti-VMAT-2 antibody (1:4000 dilution) in 13 ml of TBST with 5% milk for 1 h and then washed 5 times (2×1 min wash: 3×5 min wash) in 70 ml TBST with 5% milk. The membranes then were incubated for 1 h with the goat F (ab′)2 anti-rabbit immunoglobulin antibody (Biosource International, Camarillo, Calif.) at a 1:2000 dilution in TBST with 5% milk. This secondary antibody had been affinity-isolated, preabsorbed with human immunoglobulin, and conjugated with horseradish peroxidase. The membranes were then washed 5 times (2×1 min wash: 3×5 min) with 70 ml TBST, and then developed with Renaissance Western Blot Chemiluminescence's Reagent Pus (NEN, Boston, Mass.), according to manufacturer specification. […] Bands on blots were quantified by densitometry measuring net intensity (the sum of the background-subtracted pixel values in the band area) using Kodak 1D image-analysis software.
# [4] = molecular target: T3, VMAT-2 (Rattus norvegicus, UniProt Q01827); design: purified striatal vesicles prepared from treated rats; from tissue; host or cells: striatum of male Sprague-Dawley rats (synaptic vesicles; P2, P3, S3 fractions); settings: rats, multiple METH; Brown et al., 2000; cited from earlier work
# T3 sequence (Q01827 whole entry): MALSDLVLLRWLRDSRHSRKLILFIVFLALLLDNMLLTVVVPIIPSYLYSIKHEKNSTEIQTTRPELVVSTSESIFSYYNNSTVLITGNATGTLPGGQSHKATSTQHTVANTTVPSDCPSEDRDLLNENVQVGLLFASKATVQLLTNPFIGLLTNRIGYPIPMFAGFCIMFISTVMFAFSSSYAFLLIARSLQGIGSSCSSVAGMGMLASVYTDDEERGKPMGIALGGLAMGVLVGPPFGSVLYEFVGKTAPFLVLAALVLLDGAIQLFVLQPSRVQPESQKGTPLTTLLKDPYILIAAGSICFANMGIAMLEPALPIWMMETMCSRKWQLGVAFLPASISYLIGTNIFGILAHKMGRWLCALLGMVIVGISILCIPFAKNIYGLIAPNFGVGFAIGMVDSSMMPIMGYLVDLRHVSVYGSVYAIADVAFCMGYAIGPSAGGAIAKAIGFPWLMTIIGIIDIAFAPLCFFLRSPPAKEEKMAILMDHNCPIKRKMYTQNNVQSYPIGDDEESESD
# [5] = molecular target: T2, VMAT-2; assay: [3H]DHTBZ binding in striatal vesicles prepared from treated mice; settings: methamphetamine 4 x 10 mg/kg s.c., 2-h intervals, 1 and 24 h after treatment
# Protocol: Binding of [^3H]DHTBZ was performed essentially as described by Brown et al. (2001a and 2001b) Briefly, 200 μl of the synaptic vesicles preparation (˜6 μg of protein) was incubated in wash buffer in the presence of [^3H]DHTBZ (2 nM final concentration) for 10 min at 25° C. The reaction was terminated by addition of 1 ml cold wash buffer and rapid filtration through Whatman GF/P filters soaked in 0.5% polyethylenimine. Filters were washed three times with ice-cold wash buffer. Nonspecific binding was determined by co incubation with 20 μM TBZ. All protein concentrations were determined by Bio-Rad protein assay (Bio-Rad Inc.)
# [6] = molecular target: T3, VMAT-2; assay: Direct in vitro application of MPD to vesicular [3H]DA uptake; type: biochemical; design: purified striatal vesicles prepared from treated rats; from tissue; host or cells: striatum of male Sprague-Dawley rats (synaptic vesicles; P2, P3, S3 fractions)
# [7] = Locomotor activity and rearing of treated rats; type: in vivo, rat; settings: MPD 5-40 mg/kg s.c.
Structure (SMILES),"magnitude of the decrease in plasmalemmal DA uptake ([1]; METH 4 x 10 mg/kg s.c., 2-h intervals, 1 h, Kokoshka 1998, Fleckenstein 1999, Metzger 2000)","recovery of plasmalemmal DA uptake after 24 h ([1]; multiple METH, Kokoshka et al., 1998)","vesicular [3H]dopamine uptake ([2]; methamphetamine 4 x 10 mg/kg s.c., 2-h intervals, 1 and 24 h after treatment)",VMAT-2 immunoreactivity in the membrane-associated fraction [3],VMAT-2 immunoreactivity in the vesicle preparation [3],total VMAT-2 immunoreactivity in synaptosomes [3],deficit in vesicular DA uptake [4],[3H]DHTBZ binding [5],"vesicular dopamine uptake after a single injection ([2]; methylphenidate 10 mg/kg s.c. or cocaine 30 mg/kg i.p., vesicles prepared 1 h after treatment)","IC50 ([6]; in vitro direct application, n=3)","vesicular [3H]DA uptake on direct application of MPD ([6]; in vitro, concentrations of 1 nM to 1 μM)",locomotor activity and rearing as compared with controls [7]
"CN[C@@H](C)Cc1ccccc1 (racemic) [METH, methamphetamine]",70-80%,≈ 60 % of control values,rapidly decreased,increasing,decreased,little effect,≈ 65%,rapidly decreased,–,–,–,–
"COC(=O)C(c1ccccc1)C1CCCCN1 (stereo not drawn) [MPD, methylphenidate]",–,–,–,–,–,–,–,–,increased,19.8 ± 4 µM,without effect,increased
